Entries after “also recorded” stand apart in the source; their conditions may differ. Where two headings read alike, the source gives them in different places.
How the values were obtained:
5-HT1A receptor = molecular target: T1, 5-HT1A receptor (Rattus norvegicus, UniProt P19327); assay: Functional 5-HT1A receptor [35S]GTPγS assay (agonist mode); type: biochemical; details: [35S]GTPγS, rat hippocampus homogenate;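 further: male Sprague-Dawley rat hippocampal membranes incubated 90 min at 37 °C, bound label counted by scintillation after filtration, non-specific binding defined with 100 µM unlabeled GTPγS, one-site curve fit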
T1 construct: 15 μg/mL of hippocampus homogenate was incubated in triplicate with 0.8 nM; from tissue; host or cells: rat hippocampus homogenate
T1 sequence (P19327 1-422): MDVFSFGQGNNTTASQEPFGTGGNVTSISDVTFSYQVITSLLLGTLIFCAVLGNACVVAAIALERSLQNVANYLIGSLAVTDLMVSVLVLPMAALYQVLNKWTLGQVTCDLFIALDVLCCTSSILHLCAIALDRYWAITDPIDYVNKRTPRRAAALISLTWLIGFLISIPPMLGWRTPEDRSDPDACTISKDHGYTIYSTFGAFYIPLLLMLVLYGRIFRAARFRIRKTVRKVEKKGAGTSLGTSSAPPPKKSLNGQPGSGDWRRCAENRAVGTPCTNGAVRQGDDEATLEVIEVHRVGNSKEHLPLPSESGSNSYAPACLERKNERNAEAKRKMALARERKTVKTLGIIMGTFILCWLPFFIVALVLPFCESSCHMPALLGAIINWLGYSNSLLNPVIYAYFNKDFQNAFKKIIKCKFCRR

D2 receptor = molecular target: T2, D2 receptor (Rattus norvegicus, UniProt P61169); assay: Functional D2 receptor [35S]GTPγS assay (antagonist mode vs dopamine; basal for agonism); type: biochemical; details: against 40 µM dopamine, rat striatal homogenate; read-out: D2 receptor antagonistic activity IC50 (95% CI);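 further: [35S]GTPγS binding counted by scintillation after 60 min at 30 °C, nonspecific binding defined with 100 µM unlabeled GTPγS, inhibition curves fitted by one-site nonlinear regression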
T2 construct: 15μg/mL of striatal homogenate was incubated in triplicate; from tissue; host or cells: rat striatum homogenate

5-HT2A receptor = 5-HT2A receptor (Rattus norvegicus, UniProt P14842); assay: 5-HT2A competition binding assay ([3H]ketanserin, frontal cortex homogenates)
human 5-HT2C receptor = molecular target: T3, human 5-HT2C receptor (Homo sapiens, UniProt P28335); assay: 5-HT2C competition binding assay ([3H]mesulergine, transfected cell membranes); details: [3H]mesulergine, human 5-HT2C membranes; read-out: 5-HT2C Ki (95% CI)
T3 sequence (P28335 33-458): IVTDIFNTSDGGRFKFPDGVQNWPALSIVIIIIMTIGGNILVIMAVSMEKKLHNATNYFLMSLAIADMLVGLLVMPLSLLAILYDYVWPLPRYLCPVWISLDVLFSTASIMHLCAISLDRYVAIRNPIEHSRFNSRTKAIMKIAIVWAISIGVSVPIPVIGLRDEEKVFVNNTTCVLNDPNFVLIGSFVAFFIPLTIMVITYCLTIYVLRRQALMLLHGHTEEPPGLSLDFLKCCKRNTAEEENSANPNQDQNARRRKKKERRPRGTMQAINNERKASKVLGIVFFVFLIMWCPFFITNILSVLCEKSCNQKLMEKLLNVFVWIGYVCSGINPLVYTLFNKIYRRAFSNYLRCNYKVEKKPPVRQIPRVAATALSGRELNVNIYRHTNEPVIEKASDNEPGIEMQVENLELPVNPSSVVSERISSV

[1] = system: 5-HT2A receptors (5-HT-induced contractions in the rat ileum); assay: 5-HT-evoked contractions of isolated rat ileum; details: 5-HT 10^−5 M; compounds 10^−8–10^−5 M
mice [2] = assay: Chimney test (motor coordination); type: in vivo, mouse; details: 30 mg/kg i.p., 60 min before the test
Experimental: (§1) The experiments were carried out, in the Experimental Medicine Center of Medical University of Lublin, on six-week-old naive male Swiss mice, weighing 24–30 g. The mice were housed in cages, five individuals per cage in an environmentally controlled rooms (ambient temperature 22 ± 1 °C; relative humidity 50–60%; 12 h light/dark cycle, lights on at 8:00). Standard laboratory food(LSM-Agropol-Motycz, Lublin, Poland) and filtered water were available ad libitum. All the experimental procedures were carried out, according to the National Institute of Health Guidelines for the Care and Use of Laboratory Animals and to the European Community Council Directive for the Care and Use of Laboratory Animals of 22 September 2010 (2010/63/EU) and approved by the Local Ethics Committee for Animal Experimentation in Lublin. The investigated compounds (Norbo-4, Norbo-8, Norbo-10, Norbo-14, Norbo-18 and Norbo-20) in all tests were administered intraperitoneally (i.p.), dissolved in dimethyl sulfoxide (DMSO, final concentration of 0.1%) and then diluted by aqueous solution of 0.5% methylcellulose (tylose) and injected 60 min before the tests. […] All compounds were given in a volume of 10 mL/kg to mice. The control animals received an equivalent volume of the solvent at the respective time before the tests. All the experiments were conducted in the light phase between 09.00 a.m. and 14.00 p.m. The experiments were performed by an observer unaware of the treatment administered. The effects of investigated compounds on motor coordination were evaluated in the rota-rod and chimney tests. In the first test, motor impairments were measured, defined as the inability to keep balance on a rotating rod (at constant speed of 18 rpm) for 1 min. In the second test, motor impairments were assessed by mouse inability to climb up the tube backwards (3 cm in inner diameter, 25 cm long) within 60 s. Before the tests, the animals were trained once a day for 3 days. The animals able to stay on the rotating rod or to leave the chimney for 60 s were approved for experiments.

mice [3] = assay: Rota-rod test (motor coordination); type: in vivo, mouse; details: 30 mg/kg i.p., 60 min before the test
Experimental: as §1

mice [4] = assay: Spontaneous locomotor activity; type: in vivo, mouse
mice [5] = assay: Forced swim test (FST, Porsolt's test); type: in vivo, mouse; details: 15 mg/kg i.p., 60 min before the test
Experimental: as §1, with “The experiment was carried out according to the method” for “The effects”, “of Porsolt et al.. Mice were individually placed in a glass cylinder (25 cm high; 10 cm in diameter) containing water maintained at 23–25 °C, and were left there for 6 min. The total duration of immobility was recorded during the last 4 min of a 6-min test session. A mouse was regarded as immobile when it remained floating” for “of investigated compounds”, “on” for “on motor coordination were evaluated in”, “the water, making only small movements” for “the rota-rod and chimney tests. In the first test, motor impairments were measured, defined as the inability”, “keep its head above” for “keep balance on a rotating rod (at constant speed of 18 rpm) for 1 min. In”, “the water.” for “the second test, motor impairments were assessed by mouse inability to climb up the tube backwards (3 cm in inner diameter, 25 cm long) within 60 s. Before the tests, the animals were trained once a day for 3 days. The animals able to stay on the rotating rod or to leave the chimney for 60 s were approved for experiments.”

[6] = 30 mg/kg i.p., after 6 min of observation
[7] = 30 mg/kg i.p., after 20 min of observation

Chain of 5-HT2A receptor (P14842 whole entry): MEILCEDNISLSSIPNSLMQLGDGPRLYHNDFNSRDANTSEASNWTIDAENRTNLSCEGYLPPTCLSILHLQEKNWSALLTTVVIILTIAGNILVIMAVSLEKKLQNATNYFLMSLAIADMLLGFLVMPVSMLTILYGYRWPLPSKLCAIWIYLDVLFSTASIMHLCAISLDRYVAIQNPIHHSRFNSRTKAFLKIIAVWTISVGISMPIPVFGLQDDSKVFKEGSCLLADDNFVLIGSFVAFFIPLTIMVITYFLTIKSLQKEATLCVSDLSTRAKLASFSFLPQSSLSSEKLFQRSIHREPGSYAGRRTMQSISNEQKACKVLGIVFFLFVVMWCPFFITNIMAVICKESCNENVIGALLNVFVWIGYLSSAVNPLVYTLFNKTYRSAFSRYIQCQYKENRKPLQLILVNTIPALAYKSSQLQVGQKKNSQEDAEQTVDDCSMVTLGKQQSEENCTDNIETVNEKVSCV
T2 sequence (P61169 whole entry): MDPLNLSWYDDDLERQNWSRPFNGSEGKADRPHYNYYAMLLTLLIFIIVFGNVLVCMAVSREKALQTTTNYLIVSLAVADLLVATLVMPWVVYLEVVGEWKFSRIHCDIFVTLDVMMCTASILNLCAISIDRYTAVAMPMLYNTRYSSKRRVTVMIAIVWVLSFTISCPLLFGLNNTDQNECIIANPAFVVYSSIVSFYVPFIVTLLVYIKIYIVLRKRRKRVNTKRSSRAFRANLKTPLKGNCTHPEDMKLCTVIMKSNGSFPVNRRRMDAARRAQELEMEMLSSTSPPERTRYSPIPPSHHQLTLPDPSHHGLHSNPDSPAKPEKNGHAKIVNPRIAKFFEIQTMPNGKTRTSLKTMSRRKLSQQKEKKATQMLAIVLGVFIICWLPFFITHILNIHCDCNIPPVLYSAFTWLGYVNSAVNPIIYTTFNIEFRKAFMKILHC

Structure (SMILES) | 5-HT1A Receptor G-Protein Stimulation pEC50 (5-HT1A receptor; ± SEM) | IC50 (D2 receptor) | Ki (5-HT2A receptor; read-out: 5-HT2A Ki (95% CI)) | Ki (human 5-HT2C receptor) | Emax, maximal inhibitory effect on 5-HT-induced contractions in the rat ileum [1] | time in chimney (mice [2]) | time on rota-rod (mice [3]) | spontaneous locomotor activity (mice [4]; 15 mg/kg i.p., after 20 min of observation) | spontaneous locomotor activity (mice [4]; [6]) | spontaneous locomotor activity (mice [4]; [7]) | 5-HT1A Receptor G-Protein Stimulation Emax (%) ± SEM (5-HT1A receptor) | EC50 (5-HT1A receptor; read-out: 5-HT1A Receptor G-Protein Stimulation EC50 (95% CI)) | Ki (5-HT2A receptor; ± SEM, read-out: 5-HT2A pKi (converted)) | immobility time in FST (mice [5])
O=C(NCCCN1CCN(c2ccc(Cl)c(Cl)c2)CC1)C1CC2C=CC1C2 (stereo not drawn) [Norbo-14, endo-N-(3-(4-(3,4-dichlorophenyl)piperazin-1-yl)propyl)bicyclo[2.2.1]hept-5-ene-2-carboxamide] | no activity | 41100 nM | 17.9 nM | 3640 nM | 22.57% | significant increase of time in chimney; also recorded: disturbed the behavior of mice | decreased also time on rota-rod; also recorded: impaired motor coordination | significant decrease in locomotor activity | significant decrease in locomotor activity | significant decrease in locomotor activity |  |  |  | 
O=C(NCCCN1CCN(c2ccc(F)cc2)CC1)C1CC2C=CC1C2 (stereo not drawn) [Norbo-18, endo.-N-(3-(4-(4-fluorophenyl)piperazin-1-yl)propyl)bicyclo[2.2.1]hept-5-ene-2-carboxamide] |  | 82900 nM |  | 212 nM | 25.28% | significant increase of time in chimney; also recorded: disturbed the behavior of mice | decreased also time on rota-rod; also recorded: impaired motor coordination |  | significant decrease in locomotor activity | significant decrease in locomotor activity | 143 ± 5.1 ^&&& % | 2320 nM | 18.6 nM | significant reduction in immobility time; also recorded: significant reduction of immobility time

Source: publication PMC9572521, “Synthesis, Docking Studies and Pharmacological Evaluation of Serotoninergic Ligands Containing a 5-Norbornene-2-Carboxamide Nucleus” (Molecules, 2022)
